{"source": "ChEMBL document CHEMBL4406859", "about": "“Antitumor and antiviral activities of 4-substituted 1,2,3-triazolyl-2,3-dibenzyl-L-ascorbic acid derivatives” (Eur J Med Chem, 2019)", "note": "Active and inactive are the calls of the source. No cut-off for these calls is given here.", "data": [{"tested_on": "Vaccinia virus", "assay": "(§1) Antiviral activity against Vaccinia virus infected in human HELF cells assessed as reduction in virus-induced cytopathogenicity incubated for 7 days by microscopic analysis", "format": "functional, organism-based", "conditions": "Orthopoxvirus vaccinia", "values": [{"smiles": "CCCCc1cn(C[C@H](O)[C@H]2OC(=O)C(OCc3ccccc3)=C2OCc2ccccc2)nn1", "Activity": "inactive"}, {"smiles": "O=C1O/C(=C\\Cn2cc(-c3ccc(Br)cc3)nn2)C(OCc2ccccc2)=C1OCc1ccccc1", "Activity": "inactive"}, {"smiles": "O=C1O/C(=C\\Cn2cc(-c3cccc(O)c3)nn2)C(OCc2ccccc2)=C1OCc1ccccc1", "Activity": "inactive"}, {"smiles": "COc1ccccc1-c1cn(C/C=C2\\OC(=O)C(OCc3ccccc3)=C2OCc2ccccc2)nn1", "Activity": "inactive"}, {"smiles": "C[Si](C)(C)c1cn(C[C@H](O)[C@H]2OC(=O)C(OCc3ccccc3)=C2OCc2ccccc2)nn1", "Activity": "inactive"}, {"smiles": "O=C1O[C@H]([C@@H](O)Cn2cc(C3CC3)nn2)C(OCc2ccccc2)=C1OCc1ccccc1", "Activity": "inactive"}, {"smiles": "CC(C)(C)c1cn(C[C@H](O)[C@H]2OC(=O)C(OCc3ccccc3)=C2OCc2ccccc2)nn1", "Activity": "inactive"}, {"smiles": "CC(C)(C)c1cn(C/C=C2\\OC(=O)C(OCc3ccccc3)=C2OCc2ccccc2)nn1", "Activity": "inactive"}, {"smiles": "Cc1ccc(-c2cn(C/C=C3\\OC(=O)C(OCc4ccccc4)=C3OCc3ccccc3)nn2)cc1", "Activity": "inactive"}, {"smiles": "CCCCCCCCCCc1cn(C[C@H](O)[C@H]2OC(=O)C(OCc3ccccc3)=C2OCc2ccccc2)nn1", "Activity": "inactive"}, {"smiles": "O=C1O/C(=C\\Cn2cc(CCO)nn2)C(OCc2ccccc2)=C1OCc1ccccc1", "Activity": "inactive"}, {"smiles": "COc1ccc(-c2cn(C/C=C3\\OC(=O)C(OCc4ccccc4)=C3OCc3ccccc3)nn2)cc1", "Activity": "inactive"}, {"smiles": "O=C1O/C(=C\\Cn2cc(-c3cc(F)cc(F)c3)nn2)C(OCc2ccccc2)=C1OCc1ccccc1", "Activity": "inactive"}]}, {"tested_on": "Vaccinia virus", "assay": "as §1", "format": "functional, organism-based", "conditions": "Orthopoxvirus vaccinia, 168 h", "units": {"EC50": "µM"}, "values": [{"smiles": "O=c1[nH]c(=O)n([C@H]2C[C@H](O)[C@@H](CO)O2)cc1/C=C/Br", "note": "[BRIVUDINE]", "EC50": 85}, {"smiles": "Nc1nc2c(ncn2COCCO)c(=O)[nH]1", "note": "[ACYCLOVIR]", "EC50": "> 250"}, {"smiles": "CCCCc1cn(C/C=C2\\OC(=O)C(OCc3ccccc3)=C2OCc2ccccc2)nn1", "EC50": "> 100"}, {"smiles": "Nc1nc(O)c2ncn(COC(CO)CO)c2n1", "note": "[GANCICLOVIR]", "EC50": "> 100"}]}]}
